In this test the target is acetylcholinesterase (AChE) (Electrophorus electricus, UniProt O42275). The test can be described thus: Ellman's assay with AChE isolated from Electrophorus electricus. Format: biochemical.

The structures appear in SMILES notation.

Sequence of acetylcholinesterase (AChE) (O42275 24-633): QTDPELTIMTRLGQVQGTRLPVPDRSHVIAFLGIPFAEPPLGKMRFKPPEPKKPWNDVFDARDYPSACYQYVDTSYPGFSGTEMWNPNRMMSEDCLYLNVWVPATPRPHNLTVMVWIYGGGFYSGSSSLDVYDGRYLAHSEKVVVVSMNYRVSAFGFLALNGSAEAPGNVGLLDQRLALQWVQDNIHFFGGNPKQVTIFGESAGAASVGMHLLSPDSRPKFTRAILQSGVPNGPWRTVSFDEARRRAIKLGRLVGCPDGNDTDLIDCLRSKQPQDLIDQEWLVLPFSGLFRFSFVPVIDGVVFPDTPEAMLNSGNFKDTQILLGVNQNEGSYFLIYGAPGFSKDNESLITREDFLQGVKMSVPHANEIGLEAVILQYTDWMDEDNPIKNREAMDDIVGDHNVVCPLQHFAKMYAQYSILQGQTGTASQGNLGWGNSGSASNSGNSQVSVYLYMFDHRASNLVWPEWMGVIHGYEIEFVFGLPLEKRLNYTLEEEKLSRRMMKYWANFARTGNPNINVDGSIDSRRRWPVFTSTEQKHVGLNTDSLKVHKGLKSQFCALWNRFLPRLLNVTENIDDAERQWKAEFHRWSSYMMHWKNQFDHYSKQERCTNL

For the compound `C[C@@H]1CC(=O)O[C@H]2C[C@@]3(C)[C@@H]4CC[C@H]5C(C)(C)C(=O)CC[C@@]56C[C@@]46CC[C@]3(C)[C@@H]12` [compound 6], the IC50 came out at 53.5 ± 2.53 µM.

Values taken from publication PMC12435401 (Chemistry & Biodiversity, 2025).
